Measured values taken from US11452717B2, “Small molecule activators of nicotinamide phosphoribosyltransferase (NAMPT) and uses thereof” (Sanford Burnham Prebys Medical Discovery Institute, priority 2017, dated 2022).
Where “and” joins values, the source holds several entries; their conditions need not be identical. Equal values may be shown once.

Target: NAMPT enzyme (Homo sapiens (Human), UniProt P43490)
Experiment: Enzyme Assay and NMN Detection (NAMPT reaction, fluorescence detection of NMN)
Type: biochemical
Conditions: Table B-1; NAMPT activation, NMN formation
In short: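 Reaction in 50 mM HEPES pH 7.5, 5 mM MgCl2, 0.1% Prionex, 0.005% Tween 20, 1 mM TCEP at room temperature, with 16 nM NAMPT, 120 uM ATP, 5 uM nicotinamide, 6.25 uM PRPP, 0.04 U/ml pyrophosphatase for 2 h. Stopped with acetophenone/KOH then formic acid; NMN quantified by fluorescence (ex380/em460) against calibration curve.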

NAMPT enzyme, sequence (P43490 whole entry, species assumed): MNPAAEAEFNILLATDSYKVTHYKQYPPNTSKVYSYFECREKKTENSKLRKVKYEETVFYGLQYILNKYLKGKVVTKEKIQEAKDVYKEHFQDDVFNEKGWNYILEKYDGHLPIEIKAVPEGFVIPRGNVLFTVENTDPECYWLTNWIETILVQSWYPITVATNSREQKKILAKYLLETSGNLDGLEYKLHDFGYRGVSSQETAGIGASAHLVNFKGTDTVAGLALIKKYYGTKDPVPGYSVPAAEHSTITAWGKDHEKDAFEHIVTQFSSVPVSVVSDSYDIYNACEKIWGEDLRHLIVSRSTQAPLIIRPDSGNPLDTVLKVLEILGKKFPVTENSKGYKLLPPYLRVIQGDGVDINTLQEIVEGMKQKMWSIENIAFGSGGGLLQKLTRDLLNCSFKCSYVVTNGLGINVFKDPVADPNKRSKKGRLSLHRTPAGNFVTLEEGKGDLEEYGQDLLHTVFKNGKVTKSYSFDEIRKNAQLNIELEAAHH

`O=C(NCc1cn[nH]c1)Nc1ccc(S(=O)(=O)c2ccccc2Cl)cc1` [1-[4-(2-Chloro-benzenesulfonyl)-phenyl]-3-(1H-pyrazol-4-ylmethyl)-urea] and `COc1ccccc1S(=O)(=O)c1ccc(NC(=O)NCc2cn[nH]c2)cc1` [1-[4-(2-Methoxy-benzenesulfonyl)-phenyl]-3-(1H-pyrazol-4-ylmethyl)-urea] cannot be ordered by EC50: < 100 nM for the first, < 100 nM for the second.

First: O=C(NCc1cn[nH]c1)Nc1ccc(S(=O)(=O)N2CCc3ccccc3C2)cc1 [1-[4-(3,4-Dihydro-1H-isoquinoline-2-sulfonyl)-phenyl]-3-(1H-pyrazol-4-ylmethyl)-urea]
Second: O=C(NCc1cnco1)Nc1ccc(S(=O)(=O)N2CCc3ccccc3C2)cc1 [1-[4-(3,4-Dihydro-1H-isoquinoline-2-sulfonyl)-phenyl]-3-oxazol-5-ylmethyl-urea]
The EC50 of the first is lower: < 100 nM for the first, 100 to 2000 nM for the second.

Compared with `Cc1noc(C)c1CNC(=O)Nc1ccc(S(=O)(=O)N2CCc3ccccc3C2)cc1` [1-[4-(3,4-Dihydro-1H-isoquinoline-2-sulfonyl)-phenyl]-3-(3,5-dimethyl-isoxazol-4-ylmethyl)-urea], `O=C(NCc1cncs1)Nc1ccc(S(=O)(=O)N2CCc3ccccc3C2)cc1` [1-[4-(3,4-Dihydro-1H-isoquinoline-2-sulfonyl)-phenyl]-3-thiazol-5-ylmethyl-urea] is lower in EC50: > 20000 nM for the first, 100 to 2000 nM for the second. The second is the more potent here.

`O=C(NCc1cn[nH]c1)Nc1ccc(S(=O)(=O)c2cccc(Cl)c2)cc1` [1-[4-(3-Chloro-benzenesulfonyl)-phenyl]-3-(1H-pyrazol-4-ylmethyl)-urea] and `COc1cccc(S(=O)(=O)c2ccc(NC(=O)NCc3cn[nH]c3)cc2)c1` [1-[4-(3-Methoxy-benzenesulfonyl)-phenyl]-3-(1H-pyrazol-4-ylmethyl)-urea] cannot be ordered by EC50: < 100 nM for the first, < 100 nM for the second.

Same assay, conditions: Table B-2; NAMPT activation, NMN formation

`COc1ccccc1S(=O)(=O)c1ccc(NC(=O)NCc2ccncc2)cc1` [1-[4-(2-Methoxy-benzenesulfonyl)-phenyl]-3-pyridin-4-ylmethyl-urea] and `COc1cccc(S(=O)(=O)c2ccc(NC(=O)NCc3ccncc3)cc2)c1` [1-[4-(3-Methoxy-benzenesulfonyl)-phenyl]-3-pyridin-4-ylmethyl-urea] cannot be ordered by EC50: < 100 nM for the first, < 100 nM for the second.

`O=C(NCc1ccncc1)Nc1ccc(S(=O)(=O)N2CCc3ccccc3C2)cc1` [1-[4-(3,4-Dihydro-1H-isoquinoline-2-sulfonyl)-phenyl]-3-pyridin-4-ylmethyl-urea] and `CC1Cc2ccccc2CN1S(=O)(=O)c1ccc(NC(=O)NCc2ccncc2)cc1` (centres unmarked) [1-[4-(3-Methyl-3,4-dihydro-1H-isoquinoline-2-sulfonyl)-phenyl]-3-pyridin-4-ylmethyl-urea] fall in the same range of EC50: 100 to 2000 nM for the first, 100 to 2000 nM for the second.

Same assay, conditions: Table B-4; NAMPT activation, NMN formation

Compared with `O=C(NCc1cn[nH]c1)Nc1ccc(-c2cccc3[nH]cnc23)cc1` [1-[4-(1H-Benzoimidazol-4-yl)-phenyl]-3-(1H-pyrazol-4-ylmethyl)-urea], `O=C(NCc1cn[nH]c1)Nc1ccc(-c2n[nH]c3ccccc23)cc1` [1-[4-(1H-Indazol-3-yl)-phenyl]-3-(1H-pyrazol-4-ylmethyl)-urea] is lower in EC50: > 20000 nM for the first, 100 to 2000 nM for the second.

First: O=C(NCc1cn[nH]c1)Nc1ccc(S(=O)(=O)c2ccc(Cl)cc2Cl)cc1 [1-[4-(2,4-Dichloro-benzenesulfonyl)-phenyl]-3-(1H-pyrazol-4-ylmethyl)-urea]
Second: O=C(NCc1cn[nH]c1)Nc1ccc(S(=O)(=O)c2ccc(Cl)c(Cl)c2)cc1 [1-[4-(3,4-Dichloro-benzenesulfonyl)-phenyl]-3-(1H-pyrazol-4-ylmethyl)-urea]
The EC50 of the first is lower: 100 to 2000 nM for the first, 5000 to 20000 nM for the second.

Compared with `O=C(NCc1cn[nH]c1)Nc1ccc(S(=O)(=O)c2ccc(F)cc2F)cc1` [1-[4-(2,4-Difluoro-benzenesulfonyl)-phenyl]-3-(1H-pyrazol-4-ylmethyl)-urea], `O=C(NCc1cn[nH]c1)Nc1ccc(S(=O)(=O)c2ccc(F)c(F)c2)cc1` [1-[4-(3,4-Difluoro-benzenesulfonyl)-phenyl]-3-(1H-pyrazol-4-ylmethyl)-urea] is higher in EC50: < 100 nM for the first, 100 to 2000 nM for the second. The first is the more potent here.

First: O=C(NCc1cn[nH]c1)Nc1ccc(S(=O)(=O)c2ccccc2-c2ccccc2F)cc1 [1-[4-(2′-Fluoro-biphenyl-2-sulfonyl)-phenyl]-3-(1H-pyrazol-4-ylmethyl)-urea]
Second: COc1ccccc1-c1ccccc1S(=O)(=O)c1ccc(NC(=O)NCc2cn[nH]c2)cc1 [1-[4-(2′-Methoxy-biphenyl-2-sulfonyl)-phenyl]-3-(1H-pyrazol-4-ylmethyl)-urea]
The EC50 of the first is lower: < 100 nM for the first, 5000 to 20000 nM for the second. The first is the more potent here.

`O=C(NCc1cn[nH]c1)Nc1ccc(S(=O)(=O)c2cc(F)cc(F)c2)cc1` [1-[4-(3,5-Difluoro-benzenesulfonyl)-phenyl]-3-(1H-pyrazol-4-ylmethyl)-urea] and `O=C(NCc1cn[nH]c1)Nc1ccc(S(=O)(=O)c2cccc(I)c2)cc1` [1-[4-(3-Iodo-benzenesulfonyl)-phenyl]-3-(1H-pyrazol-4-ylmethyl)-urea] cannot be ordered by EC50: < 100 nM for the first, < 100 nM for the second.

First: O=C(NCc1cn[nH]c1)Nc1ccc(S(=O)(=O)c2ccccc2-c2cccc(Cl)c2)cc1 [1-[4-(3′-Chloro-biphenyl-2-sulfonyl)-phenyl]-3-(1H-pyrazol-4-ylmethyl)-urea]
Second: O=C(NCc1cn[nH]c1)Nc1ccc(S(=O)(=O)c2ccccc2-c2cccc(F)c2)cc1 [1-[4-(3′-Fluoro-biphenyl-2-sulfonyl)-phenyl]-3-(1H-pyrazol-4-ylmethyl)-urea]
The EC50 of the first is higher: 100 to 2000 nM for the first, < 100 nM for the second.

Same assay, conditions: Table B-5; NAMPT activation, NMN formation

Compared with `CN1CCC(S(=O)(=O)c2ccc(NC(=O)NCc3cnco3)cc2)CC1` [1-[4-(1-Methyl-piperidine-4-sulfonyl)-phenyl]-3-oxazol-5-ylmethyl-urea], `O=C(NCc1cnco1)Nc1ccc(S(=O)(=O)c2ccccc2Cl)cc1` [1-[4-(2-Chloro-benzenesulfonyl)-phenyl]-3-oxazol-5-ylmethyl-urea] is lower in EC50: 2000 to 5000 nM for the first, 100 to 2000 nM for the second. The second is the more potent here.

Compared with `O=C(NCc1cnco1)Nc1ccc(-c2cccc3[nH]cnc23)cc1` [1-[4-(1H-Benzoimidazol-4-yl)-phenyl]-3-oxazol-5-ylmethyl-urea], `O=C(NCc1cnco1)Nc1ccc(-c2n[nH]c3ccccc23)cc1` [1-[4-(1H-Indazol-3-yl)-phenyl]-3-oxazol-5-ylmethyl-urea] is lower in EC50: > 20000 nM for the first, 100 to 2000 nM for the second.

`O=C(NCc1cnco1)Nc1ccc(S(=O)(=O)c2ccc(F)cc2F)cc1` [1-[4-(2,4-Difluoro-benzenesulfonyl)-phenyl]-3-oxazol-5-ylmethyl-urea] and `O=C(NCc1cnco1)Nc1ccc(S(=O)(=O)c2ccc(F)c(F)c2)cc1` [1-[4-(3,4-Difluoro-benzenesulfonyl)-phenyl]-3-oxazol-5-ylmethyl-urea] fall in the same range of EC50: 100 to 2000 nM for the first, 100 to 2000 nM for the second.

`O=C(NCc1cnco1)Nc1ccc(S(=O)(=O)c2cc(F)cc(F)c2)cc1` [1-[4-(3,5-Difluoro-benzenesulfonyl)-phenyl]-3-oxazol-5-ylmethyl-urea] and `COc1cccc(S(=O)(=O)c2ccc(NC(=O)NCc3cnco3)cc2)c1` [1-[4-(3-methoxy-benzenesulfonyl)-phenyl]-3-oxazol-5-ylmethyl-urea] fall in the same range of EC50: 100 to 2000 nM for the first, 100 to 2000 nM for the second.

In the case of `O=C(NCc1cnco1)Nc1ccc(S(=O)(=O)c2ccc(Cl)c(Cl)c2)cc1` [1-[4-(3,4-Dichloro-benzenesulfonyl)-phenyl]-3-oxazol-5-ylmethyl-urea], the EC50 is reported as 100 to 2000 nM and 2000 to 5000 nM.

Same assay, conditions: Table B-6; NAMPT activation, NMN formation

Compared with `CN1CCC(S(=O)(=O)c2ccc(NC(=O)NCc3ccncc3)cc2)CC1` [1-[4-(1-Methyl-piperidine-4-sulfonyl)-phenyl]-3-pyridin-4-ylmethyl-urea], `O=C(NCc1ccncc1)Nc1ccc(S(=O)(=O)c2cccc(I)c2)cc1` [1-[4-(3-Iodo-benzenesulfonyl)-phenyl]-3-pyridin-4-ylmethyl-urea] is lower in EC50: 2000 to 5000 nM for the first, < 100 nM for the second. The second is the more potent here.

First: O=C(NCc1ccncc1)Nc1ccc(-c2cccc3[nH]cnc23)cc1 [1-[4-(1H-Benzoimidazol-4-yl)-phenyl]-3-pyridin-4-ylmethyl-urea]
Second: O=C(NCc1ccncc1)Nc1ccc(-c2n[nH]c3ccccc23)cc1 [1-[4-(1H-Indazol-3-yl)-phenyl]-3-pyridin-4-ylmethyl-urea]
The EC50 of the first is higher: > 20000 nM for the first, 100 to 2000 nM for the second.

`O=C(NCc1ccncc1)Nc1ccc(S(=O)(=O)c2ccc(Cl)cc2Cl)cc1` [1-[4-(2,4-Dichloro-benzenesulfonyl)-phenyl]-3-pyridin-4-ylmethyl-urea] and `O=C(NCc1ccncc1)Nc1ccc(S(=O)(=O)c2ccc(Cl)c(Cl)c2)cc1` [1-[4-(3,4-Dichloro-benzenesulfonyl)-phenyl]-3-pyridin-4-ylmethyl-urea] fall in the same range of EC50: 100 to 2000 nM for the first, 100 to 2000 nM for the second.

Compared with `O=C(NCc1ccncc1)Nc1ccc(S(=O)(=O)c2ccc(F)cc2F)cc1` [1-[4-(2,4-Difluoro-benzenesulfonyl)-phenyl]-3-pyridin-4-ylmethyl-urea], `O=C(NCc1ccncc1)Nc1ccc(S(=O)(=O)c2ccc(F)c(F)c2)cc1` [1-[4-(3,4-Difluoro-benzenesulfonyl)-phenyl]-3-pyridin-4-ylmethyl-urea] is lower in EC50: 100 to 2000 nM for the first, < 100 nM for the second.

`O=C(NCc1ccncc1)Nc1ccc(S(=O)(=O)c2ccccc2-c2cccnc2)cc1` [1-[4-(2-Pyridin-3-yl-benzenesulfonyl)-phenyl]-3-pyridin-4-ylmethyl-urea] and `O=C(NCc1ccncc1)Nc1ccc(S(=O)(=O)c2ccccc2-c2ccncc2)cc1` [1-[4-(2-Pyridin-4-yl-benzenesulfonyl)-phenyl]-3-pyridin-4-ylmethyl-urea] fall in the same range of EC50: 100 to 2000 nM for the first, 100 to 2000 nM for the second.

Compared with `O=C(NCc1ccncc1)Nc1ccc(S(=O)(=O)c2ccccc2-c2ccccc2F)cc1` [1-[4-(2′-Fluoro-biphenyl-2-sulfonyl)-phenyl]-3-pyridin-4-ylmethyl-urea], `COc1ccccc1-c1ccccc1S(=O)(=O)c1ccc(NC(=O)NCc2ccncc2)cc1` [1-[4-(2′-Methoxy-biphenyl-2-sulfonyl)-phenyl]-3-pyridin-4-ylmethyl-urea] is higher in EC50: < 100 nM for the first, 5000 to 20000 nM for the second. The first is the more potent here.

`O=C(NCc1ccncc1)Nc1ccc(S(=O)(=O)c2cc(F)cc(F)c2)cc1` [1-[4-(3,5-Difluoro-benzenesulfonyl)-phenyl]-3-pyridin-4-ylmethyl-urea] and `O=C(NCc1ccncc1)Nc1ccc(S(=O)(=O)c2ccccc2-c2cccc(Cl)c2)cc1` [1-[4-(3′-Chloro-biphenyl-2-sulfonyl)-phenyl]-3-pyridin-4-ylmethyl-urea] fall in the same range of EC50: 100 to 2000 nM for the first, 100 to 2000 nM for the second.
